Test results: patent publication US7863271B2, “2-aminobenzoxazole carboxamides as 5HT3 modulators” (Albany Molecular Research, Inc., priority 2006, dated 2011)
Structures can show the parent of a compound that is named as a salt.

The compounds below were run against T1, 5-HT3 (Homo sapiens, UniProt P46098) (assay: Compound affinity for the human 5-HT3 receptor (Assay B), SPA radioligand binding with [9-methyl-3H]BRL-43694). Settings: Assay B (method B unless otherwise annotated); read-out: 5-HT3 Ki.
T1 sequence (P46098 24-478): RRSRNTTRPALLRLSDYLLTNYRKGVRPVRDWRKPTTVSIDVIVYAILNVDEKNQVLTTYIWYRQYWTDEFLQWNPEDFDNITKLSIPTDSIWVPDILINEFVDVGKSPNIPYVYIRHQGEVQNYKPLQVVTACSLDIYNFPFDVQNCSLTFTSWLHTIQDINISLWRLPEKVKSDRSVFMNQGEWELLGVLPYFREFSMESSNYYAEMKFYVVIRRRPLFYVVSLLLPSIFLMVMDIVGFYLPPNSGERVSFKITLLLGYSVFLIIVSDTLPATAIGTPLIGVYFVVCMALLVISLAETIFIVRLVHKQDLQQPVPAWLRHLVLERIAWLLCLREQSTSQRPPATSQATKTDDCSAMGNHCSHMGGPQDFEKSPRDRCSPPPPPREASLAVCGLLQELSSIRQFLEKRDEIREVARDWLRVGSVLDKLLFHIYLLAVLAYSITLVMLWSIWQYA
Design: purchased Perkin Elmer
Outline: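 Ten competitor concentrations in duplicate; specific binding (total minus nonspecific) fitted for IC50, converted to Ki by Cheng-Prusoff.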

Row | SMILES | Ki [nM]
1 | CN1[C@@H]2CCC[C@H]1C[C@@H](NC(=O)c1cccc3oc(NCCCO)nc13)C2 [Example 40, Endo-N-(9-Methyl-9-azabicyclo[3.3.1]nonan-3-yl)-2-(3-hydroxypropylamino)benzoxazole-4-carboxamide Hydrochloride] | 7.8
2 | CCC(=O)N1C[C@H](C)N(c2nc3c(C(=O)NC4CC5CCCC(C4)N5C)cccc3o2)[C@@H](C)C1 (stereo partly drawn) [Example 134, Endo-N-(9-methyl-9-azabicyclo[3.3.1]nonan-3-yl)-2-((2S,6S)-2,6-dimethyl-4-propionylpiperazin-1-yl)benzoxazole-4-carboxamide Hydrochloride] | 1.7
3 | C[C@H]1CN(C(=O)N2CCCCC2)C[C@H](C)N1c1nc2c(C(=O)NC3CC4CCCC(C3)N4C)cccc2o1 (stereo partly drawn) [Example 141, Endo-N-(9-methyl-9-azabicyclo[3.3.1]nonan-3-yl)-2-((2S,6S)-2,6-dimethyl-4-(piperidine-1-carbonyl)piperazin-1-yl)benzoxazole-4-carboxamide hydrochloride] | 1.8
4 | C[C@@H]1CN(c2nc3c(C(=O)N[C@@H]4CN5CCC4CC5)cccc3o2)C[C@H](C)O1 [Example 18, (S)—N-(quinuclidine-8-yl)-2-((2S,6R)-2,6-dimethylmorpholino)benzoxazole-4-carboxamide Hydrochloride] | 443
5 | CN1[C@@H]2CCC[C@H]1C[C@@H](NC(=O)c1cccc3oc(N4CCNCC4(C)C)nc13)C2 [Example 102, Endo-N-(9-Methyl-9-azabicyclo[3.3.1]nonan-3-yl)-2-(2,2-dimethylpiperazin-1-yl)benzoxazole-4-carboxamide Hydrochloride] | 15.8
6 | COc1ccccc1Nc1nc2c(C(=O)N[C@H]3C[C@H]4CCC[C@@H](C3)N4C)cccc2o1 [Example 64, Endo-N-(9-methyl-9-azabicyclo[3.3.1]nonan-3-yl)-2-(2-methoxyphenylamino)benzoxazole-4-carboxamide Hydrochloride] | 16.2
7 | CN1CCN(c2nc3c(C(=O)N[C@@H]4CN5CCC4CC5)cccc3o2)CC1 [Example 2, (S)—N-(quinuclidine-8-yl)-2-(4-methylpiperazin-1-yl)benzoxazole-4-carboxamide Dihydrochloride] | 382
8 | C[C@H]1CNCCN1c1nc2c(C(=O)NC3CC4CCCC(C3)N4C)cc(Cl)cc2o1 (stereo partly drawn) [Example 57, Endo-N-(9-methyl-9-azabicyclo[3.3.1]nonan-3-yl)-6-chloro-2-((S)-2-methylpiperazin-1-yl)benzoxazole-4-carboxamide Hydrochloride] | 11.4
9 | O=C(N[C@@H]1CN2CCC1CC2)c1cccc2oc(N3CCOCC3)nc12 [Example 10, (S)—N-(quinuclidine-8-yl)-2-morpholino-benzoxazole-4-carboxamide Hydrochloride] | 164
10 | CN1C[C@H]2C[C@@H](NC(=O)c3cccc4oc(Nc5ccccc5)nc34)C[C@@H](C1)N2C [Example 51, Endo-N-(3,9-Dimethyl-3,9-diazabicyclo[3.3.1]nonan-7-yl)-2-(phenylamino)benzoxazole-4-carboxamide Hydrochloride] | 212
11 | CN1[C@@H]2COC[C@H]1C[C@@H](NC(=O)c1cccc3oc(N4CCOCC4)nc13)C2 [Example 44, Endo-N-(9-Methyl-3-oxa-9-azabicyclo[3.3.1]nonan-7-yl)-2-morpholinobenzoxazole-4-carboxamide Hydrochloride] | 323
12 | C[C@H]1CN(C)C(=O)[C@H](C)N1c1nc2c(C(=O)NC3CN4CCC3CC4)cccc2o1 (stereo partly drawn) [Example 124, N-(Quinuclidine-8-yl)-2-((2S,6S)-2,4,6-trimethyl-3-oxopiperazine-1-yl)benzoxazole-4-carboxamide Hydrochloride] | 17.7
13 | CN(C)c1nc2c(C(=O)N[C@H]3C[C@H]4CCC[C@@H](C3)N4C)cccc2o1 [Example 7, Endo-N-(9-Methyl-9-azabicyclo[3.3.1]non-3-yl)-2-(dimethylamino)benzoxazole-4-carboxamide Hydrochloride] | 6.1
14 | C[C@H]1CNC[C@H](C)N1c1nc2c(C(=O)NC3CN4CCC3CC4)ccc(F)c2o1 (stereo partly drawn) [Example 118, (S)—N-(Quinulidin-8-yl)-2-((2S,6S)-2,6-dimethylpiperazine-1-yl)-7-fluorobenzoxazole-4-carboxamide hydrochloride] | 26.8
15 | C[C@H]1CS(=O)(=O)C[C@H](C)N1c1nc2c(C(=O)NC3CC4CCCC(C3)N4C)cccc2o1 (stereo partly drawn) [Example 123, Endo-N-(9-methyl-9-azabicyclo[3.3.1]nonan-3-yl)-2-((3S,5S)/(3R,5R)-3,5-dimethylthiomorpholine 1,1-dioxide)benzoxazole-4-carboxamide Hydrochloride] | 57
16 | C[C@H]1CNC[C@H](C)N1c1nc2c(C(=O)NC3CC4CCCC(C3)N4C)ccc(F)c2o1 (stereo partly drawn) [Example 107, Endo-N-(9-Methyl-9-azabicyclo[3.3.1]nonan-3-yl)-2-((2S,6S)-2,6-dimethylpiperazine-1-yl)-7-fluorobenzoxazole-4-carboxamide hydrochloride] | 14.2
17 | CN1[C@@H]2CCC[C@H]1C[C@@H](NC(=O)c1cccc3oc(N4CCC(=O)CC4)nc13)C2 [Example 92, Endo-N-(9-methyl-9-azabicyclo[3.3.1]nonan-3-yl)-2-(4-oxopiperidin-1-yl)benzoxazole-4-carboxamide Hydrochloride] | 21.2
18 | C[C@H]1COC[C@H](C)N1c1nc2c(C(=O)NC3CC4CCC(C3)N4C)cccc2o1 (stereo partly drawn) [Example 101, N-(8-Methyl-8-azabicyclo[3.2.1]octan-3-yl)-2-(3S,5S)-3,5-dimethylmorpholinobenzoxazole-4-carboxamide Hydrochloride] | 2.6
19 | C=CCN1C[C@H](C)N(c2nc3c(C(=O)NC4CC5CCCC(C4)N5C)cccc3o2)C[C@H]1C (relative stereo) [Example 147, Endo-N-(9-Methyl-9-azabicyclo[3.3.1]nonan-3-yl)-2-((2S*,5R*)-4-allyl-2,5-dimethylpiperazin-1-yl)benzoxazole-4-carboxamide Dihydrochloride] | 10.8
20 | CN1CCCN(c2nc3c(C(=O)N[C@H]4C[C@H]5CCC[C@@H](C4)N5C)cccc3o2)CC1 [Example 11, Endo-N-(9-Methyl-9-azabicyclo[3.3.1]non-3-yl)-2-(4-methyl-1,4-diazepam-1-yl)benzoxazole-4-carboxamide Dihydrochloride] | 89.6
21 | O=C(N[C@@H]1CN2CCC1CC2)c1cccc2oc(Nc3ccncc3)nc12 [Example 28, (S)—N-(quinuclidine-8-yl)-2-(pyridin-4-ylamino)benzoxazole-4-carboxamide Dihydrochloride] | 5.3
22 | COCCCNc1nc2c(C(=O)NC3CC4CCCC(C3)N4C)cccc2o1 (stereo not drawn) [Example 39, Endo-N-(9-Methyl-9-azabicyclo[3.3.1]nonan-3-yl)-2-(3-methoxypropylamino)benzoxazole-4-carboxamide Hydrochloride] | 13.2
23 | COC(=O)N1C[C@H](C)N(c2nc3c(C(=O)NC4CC5CCCC(C4)N5C)cccc3o2)[C@@H](C)C1 (stereo partly drawn) [Example 125, Endo-(3S,5S)-Methyl 3,5-dimethyl-4-(4-(9-methyl-9-azabicyclo[3.3.1]nonan-3-ylcarbamoyl)benzoxazol-2-yl)piperazine-1-carboxylate Hydrochloride] | 2.1
24 | CN1C2CCCC1CC(NC(=O)c1cc(Cl)cc3oc(N4CCOC[C@@H]4C(C)(C)C)nc13)C2 (stereo partly drawn) [Example 80, Endo N-(9-Methyl-9-azabicyclo[3.3.1]nonan-3-yl)-2-((S)-3-tert-butylmorpholino)-6-chloro-benzoxazole-4-carboxamide Hydrochloride] | 29.4
25 | C[C@H]1COC[C@H](C)N1c1nc2c(C(=O)NC3CC4CCCC(C3)N4)cccc2o1 (stereo partly drawn) [Example 81, Endo-N-(9-Azabicyclo[3.3.1]nonan-3-yl)-2-((3S,5S)-3,5-dimethylmorpholino)benzoxazole-4-carboxamide Hydrochloride] | 16.8
26 | CC(C)[C@H]1COCCN1c1nc2c(C(=O)NC3CC4CCCC(C3)N4C)cccc2o1 (stereo partly drawn) [Example 48, Endo-N-(9-Methyl-9-azabicyclo[3.3.1]nonan-3-yl)-2-((S)-3-isopropylmorpholino)benzoxazole-4-carboxamide Hydrochloride] | 6
27 | CN1CCN(c2nc3c(C(=O)N[C@H]4C[C@H]5CCC[C@@H](C4)N5C)cccc3o2)CC1 [Example 1, Endo-N-(9-Methyl-9-azabicyclo[3.3.1]non-3-yl)-2-(4-methylpiperazin-1-yl)benzoxazole-4-carboxamide Dihydrochloride] | 85
28 | CC[C@H]1COC[C@H](C)N1c1nc2c(C(=O)NC3CC4CCCC(C3)N4C)cccc2o1 (stereo partly drawn) [Example 87, Endo-N-(9-Methyl-9-azabicyclo[3.3.1]nonan-3-yl)-2-((3 S,5S)-3-ethyl-5-methylmorpholino)benzoxazole-4-carboxamide Hydrochloride] | 1
29 | CN1[C@@H]2CCC[C@H]1C[C@@H](NC(=O)c1cccc3oc(=S)[nH]c13)C2 [Example 72, Endo N-(9-methyl-9-azabicyclo[3.3.1]nonan-3-yl)-2-thioxo-2,3-dihydrobenzoxazole-4-carboxamide Hydrochloride] | 30.8
30 | CN1[C@@H]2CCC[C@H]1C[C@@H](NC(=O)c1cccc3oc(N)nc13)C2 [Example 35, Endo-N-(9-Methyl-9-azabicyclo[3.3.1]non-3-yl)-2-aminobenzoxazole-4-carboxamide Hydrochloride] | 9.1
